Data as given in patent US20040209914A1, “Aromatic sulfone hydroxamic acids and their use as protease inhibitors” (priority 2000, published 2004).

How the values were obtained:
Experiment in all cases: biochemical
[1] = target: T1, Recombinant human MMP-1 (Homo sapiens, UniProt P03956); details: fluorogenic MCA-peptide substrate, pH 7.5, room temperature
T1 construct: made in house; host or cells: transfected HT-1080 cells
T1 sequence (P03956 100-469): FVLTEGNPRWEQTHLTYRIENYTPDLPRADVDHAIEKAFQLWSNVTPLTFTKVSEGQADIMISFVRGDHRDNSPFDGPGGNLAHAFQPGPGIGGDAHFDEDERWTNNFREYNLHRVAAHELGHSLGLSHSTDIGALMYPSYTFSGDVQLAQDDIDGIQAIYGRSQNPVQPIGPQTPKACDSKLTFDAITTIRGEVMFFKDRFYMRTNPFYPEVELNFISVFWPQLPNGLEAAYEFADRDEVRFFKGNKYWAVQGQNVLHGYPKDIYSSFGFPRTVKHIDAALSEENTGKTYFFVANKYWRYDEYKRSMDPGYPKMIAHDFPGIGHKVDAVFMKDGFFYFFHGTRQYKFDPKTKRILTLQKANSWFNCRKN
Method: (§1) Recombinant human MMP-1, MMP-2, MMP-9, MMP-13, and were used in this assay. These enzymes were prepared in the Assignee's es following usual laboratory procedures. Specifics for preparing and e enzymes can be found in the scientific literature describing these See, e.g., Enzyme Nomenclature (Academic Press, San Diego, Calif., d the citations therein).
The MMP-1 was obtained from MMP-1 expressing transfected HT-1080 cells provided by Dr. Harold Welgus of Washington University in St. Louis, Mo. The MMP-1 was activated using 4-aminophenylmercuric acetate (APMA), and then purified over a hydroxamic acid column.
(§2) The enzyme substrate was a methoxycoumarin-containing polypeptide having the following sequence:
(§3) MCA-ProLeuGlyLeuDpaAlaArgNH2
(§4) Here, “MCA” is methoxycoumarin and “Dpa” is 3-(2,4-dinitrophenyl)-L-2,3-diaminopropionyl alanine.
(§5) These solutions were then compared to a control (which contained equal amount of DMSO/buffer solution, but no hydroxamate compound) using Microfluor™ White Plates (Dynatech, Chantilly, Va.). Specifically, The MMPs were activated with APMA or trypsin. […] The control likewise was incubated at room temperature in separate plates with the MMP and 4 uM of the MMP substrate. […] Inhibition was measured as a reduction in fluorescent intensity as a function of inhibitor concentration using a Perkin Elmer (Norwalk, Conn.) L550 plate reader. The IC50's were then calculated from these measurements.

[2] = target: T2, Recombinant human MMP-2 (Homo sapiens, UniProt P08253); details: fluorogenic MCA-peptide substrate, pH 7.5, room temperature; read-out: MMP-2 IC50
T2 construct: made in house
T2 sequence (P08253 110-660): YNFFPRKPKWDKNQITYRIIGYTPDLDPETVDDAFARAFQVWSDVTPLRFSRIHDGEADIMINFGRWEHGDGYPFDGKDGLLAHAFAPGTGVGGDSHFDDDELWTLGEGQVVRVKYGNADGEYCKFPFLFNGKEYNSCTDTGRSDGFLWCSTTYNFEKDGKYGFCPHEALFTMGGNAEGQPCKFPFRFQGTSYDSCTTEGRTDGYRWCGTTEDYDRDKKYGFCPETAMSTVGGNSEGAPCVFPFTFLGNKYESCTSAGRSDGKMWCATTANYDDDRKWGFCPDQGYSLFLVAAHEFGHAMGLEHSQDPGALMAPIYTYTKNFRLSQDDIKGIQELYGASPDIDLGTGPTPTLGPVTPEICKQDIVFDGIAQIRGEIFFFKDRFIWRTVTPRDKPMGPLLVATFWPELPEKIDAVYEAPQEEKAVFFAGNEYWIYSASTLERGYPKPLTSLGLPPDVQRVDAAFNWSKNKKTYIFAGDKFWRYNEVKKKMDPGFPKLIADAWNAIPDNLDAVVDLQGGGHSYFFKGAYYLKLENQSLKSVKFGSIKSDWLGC
Method: as §1
The MMP-2 was obtained from MMP-2 expressing transfected cells provided by Dr. Gregory Goldberg of Washington University.
as §2, §3, §4, §5

[3] = target: T3, Recombinant human MMP-13 (Homo sapiens, UniProt P45452); details: fluorogenic MCA-peptide substrate, pH 7.5, room temperature; read-out: MMP-13 IC50
T3 construct: made in house; host or cells: baculovirus / insect cells
Method: as §1
The expressed proenzyme was first purified over a heparin agarose column, and then over a chelating zinc chloride column. The proenzyme was then activated by APMA for use in the assay.
as §2, §3, §4, §5

Compound	IC50 [1] [nM]	IC50 [2] [nM]	IC50 [3] [nM]
O=C(CN1CCN(C(=O)C2CCN(c3ccc(S(=O)(=O)C4(C(=O)NO)CCOCC4)cc3)CC2)CC1)N1CCCC1 [Example 16]	> 10000	4800	42.5
COCCN1CCC(C(=O)NO)(S(=O)(=O)c2ccc(N3CCC(C(=O)c4ccc(CC(C)C)cn4)CC3)cc2)CC1 [Example 253]	> 10000	38.7	1.7
COc1ccc(C2CCN(c3ccc(S(=O)(=O)C4(C(=O)NO)CCN(C5CC5)CC4)cc3)CC2)cc1 [Example 260]	> 10000	1.2	0.4
COCCc1sc(CC(=O)C2CCN(c3ccc(S(=O)(=O)C4(C(=O)NO)CCOCC4)cc3)CC2)nc1C [Example 374]	> 10000	970	5.6
COCCN1CCC(C(=O)NO)(S(=O)(=O)c2ccc(N3CCC(C(=O)c4ccc(COCC(C)C)s4)CC3)cc2)CC1 [Example 243]	> 10000	56	0.3
COCCN1CCC(C(=O)NO)(S(=O)(=O)c2ccc(N3CCC(C(=O)c4ccc(OC(C)C)c(C)c4)CC3)cc2)CC1 [Example 191]	> 10000	2290	3
COc1ccc(C(=O)C2CCN(c3ccc(S(=O)(=O)C4(C(=O)NO)CCN(S(C)(=O)=O)CC4)cc3)CC2)cc1 [Example 206]	> 10000	199	1.8
COCCN1CCN(C(=O)C2CCN(c3ccc(S(=O)(=O)C4(C(=O)NO)CCOCC4)cc3)CC2)CC1 [Example 18]	> 10000	> 10000	> 10000
C=CCN1CCC(C(=O)NO)(S(=O)(=O)c2ccc(N3CCC(C(=O)c4ccc5ccccc5c4)CC3)cc2)CC1 [Example 160]	> 10000	198	0.4
O=C(c1ccc(Br)cc1)C1CCN(c2ccc(S(=O)(=O)C3(C(=O)NO)CCN(C4CC4)CC3)cc2)CC1 [Example 190]	> 10000	23.1	0.2
CCN1CCC(C(=O)NO)(S(=O)(=O)c2ccc(N3CCC(C(=O)c4ccc(CC(C)CO)cc4)CC3)cc2)CC1 (centres unmarked) [Example 235]	> 10000	118	0.8
CCC(C)Cc1ccc(C(=O)C2CCN(c3ccc(S(=O)(=O)C4(C(=O)NO)CCOCC4)cc3)CC2)cc1 (centres unmarked) [Example 382]	> 10000	1310	0.3
Cc1ccc(C(=O)C2CCN(c3ccc(S(=O)(=O)C4(C(=O)NO)CCN(CC5CC5)CC4)cc3)CC2)cc1 [Example 210]	> 10000	13.1	1.1
COCCN1CCC(C(=O)NO)(S(=O)(=O)c2ccc(N3CCC(C(=O)c4cccc(Cl)c4)CC3)cc2)CC1 [Example 186]	> 10000	94.4	3.5
C=CCN1CCC(C(=O)NO)(S(=O)(=O)c2ccc(N3CCC(C(=O)c4ccc(N(C)CC)cc4)CC3)cc2)CC1 [Example 181]	> 10000	936	2.3
O=C(C1CCN(c2ccc(S(=O)(=O)C3(C(=O)NO)CCOCC3)cc2)CC1)N1CCN(C2CCCC2)CC1 [Example 14]	> 10000	> 10000	45
Cc1ccc(C2CCN(c3ccc(S(=O)(=O)C4(C(=O)NO)CCN(C5CC5)CC4)cc3)CC2)cc1 [Example 272]	> 10000	5.9	1.3
CCOC(=O)CN1CCN(C(=O)C2CCN(c3ccc(S(=O)(=O)C4(C(=O)NO)CCOCC4)cc3)CC2)CC1 [Example 11]	> 10000	2700	37
O=C(c1ccc(F)c(F)c1)C1CCN(c2ccc(S(=O)(=O)C3(C(=O)NO)CCOCC3)cc2)CC1 [Example 302]	> 10000	35	1.9

Compound	IC50 [1] [nM]	IC50 [2] [nM]	IC50 [3] [nM]
CC(C)Cc1ccc(C(=O)C2CCN(c3ccc(S(=O)(=O)C4(C(=O)NO)CCOCC4)cc3)CC2)cc1 [Example 377]	> 10000	361	0.4
CCN1CCC(C(=O)NO)(S(=O)(=O)c2ccc(N3CCC(C(=O)c4ccc(CC5CCC5)cc4)CC3)cc2)CC1 [Example 232]	> 10000	624	1.3
O=C(c1ccc(Cl)cc1)C1CCN(c2ccc(S(=O)(=O)C3(C(=O)NO)CCN(CC4CC4)CC3)cc2)CC1 [Example 123]	> 10000	46.3	0.1
COCCN1CCC(C(=O)NO)(S(=O)(=O)c2ccc(N3CCC(C(=O)c4ccc(CC5CCCC5)cc4)CC3)cc2)CC1 [Example 202]	> 10000	1020	0.4
COCCN1CCC(C(=O)NO)(S(=O)(=O)c2ccc(N3CCC(C(=O)c4ccc(CCCC(C)C)cc4)CC3)cc2)CC1 [Example 226]	> 10000	1020	< 0.1
O=C(c1ccc(Cl)cc1)C1CCN(c2ccc(S(=O)(=O)C3(C(=O)NO)CCN(C4CC4)CC3)cc2)CC1 [Example 213]	> 10000	25.8	0.5
Cc1ccc(C(=O)C2CCN(c3ccc(S(=O)(=O)C4(C(=O)NO)CCN(S(C)(=O)=O)CC4)cc3)CC2)cc1 [Example 207]	> 10000	4.4	1.1
CCN1CCC(C(=O)NO)(S(=O)(=O)c2ccc(N3CCC(C(=O)c4ccc(CCC(C)C)c(F)c4)CC3)cc2)CC1 [Example 249]	> 10000	> 10000	5.8
C#CCN1CCC(C(=O)NO)(S(=O)(=O)c2ccc(N3CCC(C(=O)c4ccc(N(C)CC)cc4)CC3)cc2)CC1 [Example 174]	> 10000	1070	1.1
COCCN1CCC(C(=O)NO)(S(=O)(=O)c2ccc(N3CCC(C(=O)c4ccc(Cl)cc4)CC3)cc2)CC1 [Example 119]	> 10000	200	1
C=CCN1CCN(C(=O)C2CCN(c3ccc(S(=O)(=O)C4(C(=O)NO)CCOCC4)cc3)CC2)CC1 [Example 34]	> 10000	3700	19.3
O=C(c1ccc(CC2CCCCC2)cc1)C1CCN(c2ccc(S(=O)(=O)C3(C(=O)NO)CCOCC3)cc2)CC1 [Example 380]	> 10000	2290	9.7
O=C(C1CCN(c2ccc(S(=O)(=O)C3(C(=O)NO)CCOCC3)cc2)CC1)N1CCN(c2ccc(C(F)(F)F)cc2)CC1 [Example 33]	67.4	–	–
COCCN1CCC(C(=O)NO)(S(=O)(=O)c2ccc(N3CCC(c4ccc(C)cc4)CC3)cc2)CC1 [Example 269]	> 10000	–	1.4
Cc1ccc(C2CCN(c3ccc(S(=O)(=O)C4(C(=O)NO)CCN(CC5CC5)CC4)cc3)CC2)cc1 [Example 273]	–	13.4	2.5
O=C(NO)C1(S(=O)(=O)c2ccc(N3CCC(SCc4ccc(OC(F)(F)F)cc4)CC3)cc2)CCN(C2CC2)CC1 [Example 143]	–	100	2.1
O=C(NO)C1(S(=O)(=O)c2ccc(N3CCC(c4ccc(Cl)cc4)CC3)cc2)CCN(CC2CC2)CC1 [Example 274]	> 10000	–	2.1
COCCN1CCC(C(=O)NO)(S(=O)(=O)c2ccc(N3CCC(C(=O)c4ccc(COC)s4)CC3)cc2)CC1 [Example 252]	–	14.3	0.4
